Measurements from patent US20250206738A1, “WRN INHIBITORS” (Nimbus Wadjet, Inc., priority 2023, published 2025).

Columns and labels:
[1] = tested on: p21 induction in HCT 116 cells; experiment: p21 induction in cells (In-Cell Western, p21/GAPDH ratio); type: cell-based; details: Homo sapiens, HCT-116, 24 h, 24 h compound incubation, read-out: P21_EC50
Procedure: Example 3: Method for Determining Effect on p21 Induction in Cells
The colon carcinoma cell line HCT 116 was obtained from ATCC and cultured in growth medium consisting of Mccoy's 5A Medium (Gibco 16600108) supplemented with 10% FBS (Transgene FS201-02) and 100 units/mL penicillin-streptomycin (Gibco 15140122) and maintained at 37° C. under 5% CO2. On the day of seeding, 2,000 cells in 30 μL of culture media were plated per well to Poly-D-Lysine 384 Well Black Clear Plates (Biocoat 356663) and incubated overnight at 37° C. under 5% CO2. The following day, compounds were serially diluted in DMSO for a total of 11 test concentrations. The typical starting concentration of compounds was 10 μM with 2-fold dilutions. Next, 150 nL of diluted compound was added in duplicate to the assay plate, using an Echo 655 (Labcyte). The plate was centrifuged at 500 RPM for 1 min and then incubated at 37° C. under 5% CO2 for 24 h. After 24h, medium was removed, and cells were fixed by adding 40 μL of 4% paraformaldehyde solution to each well and incubated for 20 min at room temperature. The plate was then washed 4 times with 100 μL per well of wash buffer (PBS with 0.1% Tween-20) using a microplate washer. Next, 30 μL of ice-cold methanol was added to each well and the plate was incubated at −20° C. for 10 min. The plate was washed 4 times with 100 μL per well of wash buffer by a microplate washer, then 30 μL per well of blocking buffer (Intercept PBS blocking buffer (LI-COR 927-70001) with 0.05% Tween-20) was added and the plate was incubated at room temperature with shaking for 2h. Next, to each test well, 20 μL of primary antibody solution (p21 Waf1/CIP (12D1) RabbitmAb (Cell Signaling Technologies 2947) diluted 1:1000 and GAPDH (D4C6R) Mouse mAb (Cell Signaling Technologies 97166) diluted 1:2000 in blocking buffer) was added and the plate was placed at 4° C., overnight. The following day, the plate was washed 5 times with 100 μL per well of wash buffer using a microplate washer for 5 min. 20 μL per well of secondary antibody (IRDye 680CW Goat anti-Mouse IgG (H+L) (LI-COR 926-68070) diluted 1: 2000 in Blocking Buffer and IRDye 800CW Goat anti-Rabbit IgG (H+L) (LI-COR 926-32211) diluted 1: 2000 in Blocking Buffer) was then added and the plate was stored for 2h in the dark at room temperature with shaking. The plate was then washed 4 times with 100 μL per well of wash buffer again using a microplate washer. Finally, the p21 signal and the GAPDH signal were quantified using a LI-COR Odyssey CLx Imager machine reading at 800 nm and 700 nm, respectively. Each plate contained DMSO control (low control) and an internal reference WRN inhibitor (high control) respectively. For quantitation, the 800 nm/700 nm ratio was calculated for each well to give fold p21 induction and then percent activation for each compound well was calculated as follows (100×(ratio cpd well−ratio low control)/(ratio high control−ratio low control)). EC50 values for each compound were generated after non-linear regression curve fitting using commercially available software.

[2] = biological target: T1, human Werner helicase (WRN, Uniprot Q14191, amino acids 517-1235 with L1074F point mutation; WRN-BV08) (Homo sapiens, UniProt Q14191, L1074F); experiment: WRN (BV08) ADP-Glo assay; type: biochemical; details: WRN-BV08 (aa 517-1235, L1074F); read-out: ADP-Glo_hWRN_IC50
T1 construct: Uniprot Q14191, amino acids 517-1235 with L1074F point mutation; 8xHis (C, cleaved yes); TEV cleavage site (ENLYFQG) (C, cleaved yes); made in house; host or cells: Sf9 insect cells (baculovirus, pFastBac)
T1 sequence (Q14191 with tags, fused parts or gaps L1074F): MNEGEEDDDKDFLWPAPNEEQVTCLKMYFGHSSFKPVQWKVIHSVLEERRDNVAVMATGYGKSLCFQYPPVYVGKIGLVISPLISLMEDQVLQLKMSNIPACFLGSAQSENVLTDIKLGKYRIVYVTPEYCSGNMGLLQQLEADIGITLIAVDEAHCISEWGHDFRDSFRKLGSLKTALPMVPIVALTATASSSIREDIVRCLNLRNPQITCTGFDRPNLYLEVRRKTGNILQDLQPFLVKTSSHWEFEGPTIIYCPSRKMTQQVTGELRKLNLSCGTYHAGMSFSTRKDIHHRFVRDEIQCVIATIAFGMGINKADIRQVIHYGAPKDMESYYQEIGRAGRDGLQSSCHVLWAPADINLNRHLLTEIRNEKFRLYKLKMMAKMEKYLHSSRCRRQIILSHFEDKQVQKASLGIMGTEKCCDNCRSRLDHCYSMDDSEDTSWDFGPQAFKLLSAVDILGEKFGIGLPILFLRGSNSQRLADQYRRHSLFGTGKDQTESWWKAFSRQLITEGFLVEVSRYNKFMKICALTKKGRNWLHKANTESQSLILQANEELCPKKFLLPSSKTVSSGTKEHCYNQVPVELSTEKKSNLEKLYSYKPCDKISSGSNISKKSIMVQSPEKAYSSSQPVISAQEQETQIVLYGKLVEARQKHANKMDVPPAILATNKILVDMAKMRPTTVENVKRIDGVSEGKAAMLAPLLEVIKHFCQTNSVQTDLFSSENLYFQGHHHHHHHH
Summary of the method: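 WRN 517-1235 (L1074F, untagged, Sf9-expressed), 0.15 nM, preincubated with compound 15 min at 25 °C, then 60 min with […] and 0.1 nM DNA duplex in Bicine pH 7.5, 1 mM MgCl2, 1% DMSO. ADP-Glo luminescence; % inhibition vs NSC-617145 control, four-parameter IC50 fit.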

| Compound | EC50 [1] | IC50 [2] |
| --- | --- | --- |
| CCc1c(N2CCN(C(=O)c3ncnc(C)c3O)[C@H]3CC[C@@H]32)c(=O)c2nc(N(C)C)cnc2n1CC(=O)NC12CC(C(F)(F)F)(C1)C2 (relative stereo) [I-2, rel-2-(2-(dimethylamino)-6-ethyl-7-((1S,6S)-5-(5-hydroxy-6-methylpyrimidine-4-carbonyl)-2,5-diazabicyclo[4.2.0]octan-2-yl)-8-oxopyrido[2,3-b]pyrazin-5(8H)-yl)-N-(3-(trifluoromethyl)bicyclo[1.1.1]pentan-1-yl)acetamide] | > 5000 nM | 100 to 500 nM |
| CCc1c(N2CCN(C(=O)c3c(O)ccnc3OC)CC2)c(=O)n2nc(C3=CCOCC3)nc2n1CC(=O)NC12CC(C(F)(F)F)(C1)C2 [I-239, 2-(2-(3,6-dihydro-2H-pyran-4-yl)-5-ethyl-6-(4-(4-hydroxy-2-methoxynicotinoyl)piperazin-1-yl)-7-oxo-[1,2,4]triazolo[1,5-a]pyrimidin-4(7H)-yl)-N-(3-(trifluoromethyl)bicyclo[1.1.1]pentan-1-yl)acetamide] | > 5000 nM | 50 to 100 nM |
| CCc1c(N2CCN(C(=O)c3ncnc(C)c3O)CC2)c(=O)n2nc(-c3ccnc(OC)c3)nc2n1CCC(=O)NC12CC(C(F)(F)F)(C1)C2 [I-13, 3-(5-ethyl-6-(4-(5-hydroxy-6-methylpyrimidine-4-carbonyl)piperazin-1-yl)-2-(2-methoxypyridin-4-yl)-7-oxo-[1,2,4]triazolo[1,5-a]pyrimidin-4(7H)-yl)-N-(3-(trifluoromethyl)bicyclo[1.1.1]pentan-1-yl)propanamide] | > 5000 nM | > 500 nM |
| CCc1c(N2CCN(C(=O)c3c(OC)ccnc3O)[C@H]3CC[C@@H]32)c(=O)c2nn(C3=CCOCC3)nc2n1CC(=O)NC12CC(C(C)C)(C1)C2 [I-205, 2-(2-(3,6-dihydro-2H-pyran-4-yl)-5-ethyl-6-((1S,6S)-5-(2-hydroxy-4-methoxynicotinoyl)-2,5-diazabicyclo[4.2.0]octan-2-yl)-7-oxo-2,7-dihydro-4H-[1,2,3]triazolo[4,5-b]pyridin-4-yl)-N-(3-isopropylbicyclo[1.1.1]pentan-1-yl)acetamide] | > 5000 nM | 5 to 50 nM |
| CCc1c(N2CCN(C(=O)c3c(O)ccc4ncoc34)CC2)c(=O)n2nc(-c3ccnc(OC)c3)nc2n1CC(=O)NC12CC(OC)(C1)C2 [I-241, 2-(5-ethyl-6-(4-(6-hydroxybenzo[d]oxazole-7-carbonyl)piperazin-1-yl)-2-(2-methoxypyridin-4-yl)-7-oxo-[1,2,4]triazolo[1,5-a]pyrimidin-4(7H)-yl)-N-(3-methoxybicyclo[1.1.1]pentan-1-yl)acetamide] | > 5000 nM | 100 to 500 nM |
| CCc1c(N2CCN(C(=O)c3ncnc(C)c3O)[C@H]3CC[C@@H]32)c(=O)c2nc(N(C)C)cnc2n1CC(=O)NC1CC2(CCC2)C1 [I-229, 2-(2-(dimethylamino)-6-ethyl-7-((1S,6S)-5-(5-hydroxy-6-methylpyrimidine-4-carbonyl)-2,5-diazabicyclo[4.2.0]octan-2-yl)-8-oxopyrido[2,3-b]pyrazin-5(8H)-yl)-N-(spiro[3.3]heptan-2-yl)acetamide] | 2000 to 5000 nM | 5 to 50 nM |
| CCc1c(N2CCN(C(=O)c3ncnc(C)c3O)CC2)c(=O)n2nc(-c3ccnc(OC)c3)nc2n1CC(=O)N[C@H]1CC[C@H](C(F)(F)F)CC1 [I-242, 2-(5-ethyl-6-(4-(5-hydroxy-6-methylpyrimidine-4-carbonyl)piperazin-1-yl)-2-(2-methoxypyridin-4-yl)-7-oxo-[1,2,4]triazolo[1,5-a]pyrimidin-4(7H)-yl)-N-((1r,4r)-4-(trifluoromethyl)cyclohexyl)acetamide] | > 5000 nM | 100 to 500 nM |

Continued, values first:

| EC50 [1] | IC50 [2] | Compound |
| --- | --- | --- |
| ≤ 500 nM | ≤ 5 nM | CCc1c(N2CCN(C(=O)c3c(O)ccc4ncoc34)CC2)c(=O)n2nc(-c3ccnc(OC)c3)nc2n1CC(=O)NC12CC(C3CC3)(C1)C2 [I-36, N-(3-cyclopropylbicyclo[1.1.1]pentan-1-yl)-2-(5-ethyl-6-(4-(6-hydroxybenzo[d]oxazole-7-carbonyl)piperazin-1-yl)-2-(2-methoxypyridin-4-yl)-7-oxo-[1,2,4]triazolo[1,5-a]pyrimidin-4(7H)-yl)acetamide] |
| 500 to 2000 nM | 5 to 50 nM | CCc1c(N2CCN(C(=O)c3c(OC)ncc(C4CCOC4)c3O)CC2)c(=O)c2nn(-c3ccnc(OC)c3)nc2n1CC(=O)NC12CC(C(C)C)(C1)C2 (single isomer, unassigned) [I-64] |
| ≤ 500 nM | 5 to 50 nM | CCc1c(N2CCN(C(=O)c3c(O)ccc4ncoc34)CC2)c(=O)n2nc(-c3ccnc(OC)c3)nc2n1CC(=O)NC12CC(C(F)(F)F)(C1)C2 [I-10, 2-(5-ethyl-6-(4-(6-hydroxybenzo[d]oxazole-7-carbonyl)piperazin-1-yl)-2-(2-methoxypyridin-4-yl)-7-oxo-[1,2,4]triazolo[1,5-a]pyrimidin-4(7H)-yl)-N-(3-(trifluoromethyl)bicyclo[1.1.1]pentan-1-yl)acetamide] |
| ≤ 500 nM | 5 to 50 nM | CCc1c(N2CCN(C(=O)c3ncnc(C)c3O)CC2)c(=O)n2nc(-c3ccnc(OC)c3)nc2n1CC(=O)NC12CC(C(C)C)(C1)C2 [I-40, 2-(5-ethyl-6-(4-(5-hydroxy-6-methylpyrimidine-4-carbonyl)piperazin-1-yl)-2-(2-methoxypyridin-4-yl)-7-oxo-[1,2,4]triazolo[1,5-a]pyrimidin-4(7H)-yl)-N-(3-isopropylbicyclo[1.1.1]pentan-1-yl)acetamide] |
| 500 to 2000 nM | 5 to 50 nM | CCc1c(N2CCN(C(=O)c3ncnc(C)c3O)[C@H]3CCC[C@H]32)c(=O)c2nn(-c3ccnc(OC)c3)nc2n1CC(=O)NC12CC(C(C)C)(C1)C2 (relative stereo) [I-93, rel-2-{6-[(4aR,7aS)-4-(5-hydroxy-6-methylpyrimidine-4-carbonyl)-octahydro-1H-cyclopenta[b]pyrazin-1-yl]-5-ethyl-2-(2-methoxypyridin-4-yl)-7-oxo-2H,4H,7H-[1,2,3]triazolo[4,5-b]pyridin-4-yl}-N-[3-(propan-2-yl)bicyclo[1.1.1]pentan-1-yl]acetamide] |
| 2000 to 5000 nM | 5 to 50 nM | CCc1c(N2CCN(C(=O)c3ncc4c(c3O)CCO4)CC2)c(=O)n2nc(C3=CCN(C(C)=O)CC3)nc2n1CC(=O)NC12CC(C(F)(F)F)(C1)C2 [I-11, 2-(2-(1-acetyl-1,2,3,6-tetrahydropyridin-4-yl)-5-ethyl-6-(4-(4-hydroxy-2,3-dihydrofuro[2,3-c]pyridine-5-carbonyl)piperazin-1-yl)-7-oxo-[1,2,4]triazolo[1,5-a]pyrimidin-4(7H)-yl)-N-(3-(trifluoromethyl)bicyclo[1.1.1]pentan-1-yl)acetamide] |
| ≤ 500 nM | 5 to 50 nM | CCc1c(N2CCN(C(=O)c3c(OC)ncc(C)c3O)CC2)c(=O)n2nc(-c3ccnc(OC)c3)nc2n1CC(=O)NC12CC(C3CC3)(C1)C2 [I-39, N-(3-cyclopropylbicyclo[1.1.1]pentan-1-yl)-2-(5-ethyl-6-(4-(4-hydroxy-2-methoxy-5-methylnicotinoyl)piperazin-1-yl)-2-(2-methoxypyridin-4-yl)-7-oxo-[1,2,4]triazolo[1,5-a]pyrimidin-4(7H)-yl)acetamide] |
